Here are results for one compound from patent US20250221960A1, “COMPOSITIONS AND METHODS FOR THE TREATMENT OF DEPRESSION” (Janssen Pharmaceuticals, Inc., priority 2022, published 2025).

Common to all, as to assay type: in vivo, human
The nature of series [1]: Weight change by treatment group, Example 1. Here is the method:
Treatment with aticaprant as described herein has several advantages over the treatments in the art. […] As used herein, the term “weight gain” refers to an increase in the weight of patient, relative to the weight of the patient before taking aticaprant or the weight of the patient that is assessed at the time of the initial administration of the aticaprant. In certain embodiments, the patient may actually see a decrease in overall weight, relative to the weight of the patient before taking aticaprant.
At the lead-in baseline timepoint, the mean weight for subjects in the placebo group was 76.17 kg compared to 78.66 in the aticaprant group. After 6 weeks in the double-blind treatment phase, the mean weight in the placebo group was 75.75 kg compared to 78.57 kg in the aticaprant group. […] This is unexpected because other adjunctive treatments for MDD result in a mean weight increase. See, Thase M, et al. J Clin Psych. 2015: 76 (9), 1224-1231; Thase, J Clin Psych. 2015, 76 (9): 1232-1240; El Khalili, Int J Neuropsychopharmacol. 2010, 13, 917-932; Marcus, J. Clin. Psychopharmacol. […] Nashville, Tenn, ACNP, 2008; Earley, American College of Neuropsychopharmacology, 2007, Annual Meeting Abstracts (Boca Raton, Fla, Dec. 9-13, 2007). Nashville, TN, ACNP, 2007). See, Table 29.

Series [2] deals with subjects with MDD. The series can be described thus: Biomarker signature subtyping of MADRS treatment outcome (Example 4). How it is done: Serum or plasma was prepared from the samples of venous blood. Measurements of human CRP and IL-6-R were performed in serum using an MSD Sector 6000 with the kits #K151STD and K151ALC (MesoScale Discovery, Rockville, MD). Human TNFα was quantified in serum using a Simoa HD-1 analyzer with kit #143 (Quanterix, Lexington, MA). Human Dynorphin was assayed in plasma using a SpectraMax M plate reader (Molecular devices, San Jose, CA) with kit #CSB-E09128h (Cusabio, Wuhan, China). All measures were performed according to kit manufacturer's recommendations.
As used in the following biomarker assay analysis, treatment (TRT) refers to treatment with an SSRI/SNRI plus Aticaprant and placebo (PBO) refers to treatment with an SSRI/SNRI plus placebo.
Treatment Outcome: Change in clinical scale at the of end of the double period. Negative values indicate improvement in depression levels relative to baseline levels. The more negative the change, the greater the improvement.
Sig^Pos: Patient meeting the criteria defined by signature of biomarkers and/or clinical scales.
3 MM: Inflammatory biomarker signature with positive status defined by CRP>3 mg/L and (TNFα>4 pg/mL or sIL6R>25 ng/ml).
4 MM: Inflammatory biomarker signature with positive status defined by high dynorphin (δ1) or 3 MM with moderate dynorphin (δ2) subtypes, specifically: DYN>δ1 pg/mL or (DYN>δ2 pg/mL and CRP>3 mg/L and (TNFα>4 pg/ml or sIL6R>25 ng/ml)). In certain embodiments, the 4 MM DYN cutoffs are as follows: Dyn>50 OR (3 MM and Dyn>8); Dyn>24 OR (3 MM and Dyn>8), or Dyn>11.4 and 3 MM.
TE Sig^Pos: Treatment Effect in Signature Positive group: (Average mean MADRS change in placebo-Average mean MADRS change in treatment) in Sig^Pos group.
TE Sig^Neg: Treatment Effect in Signature Negative group.
Sig Adv: Signature Advantage (interaction) Difference in TE between signature groups: Sig Adv=TE Sig^Pos−TE Sig^Neg.
The effect of biomarker signatures on patient response to treatment is summarized in graphical form using two panel box plots in FIG. 25. […] Red color represents placebo and teal represents aticaprant. Rectangular boxes span Diamonds and error bars represent mean and 95% Confidence Interval (CI) of treatment outcome by treatment arm and biomarker signature status. In the signature positive group, the treatment effect (difference in average treatment outcome between treatment arms) was of 6.29 MADRS points (One sided p=0.07, effect size=0.75). While in the signature negative groups, the treatment effect was 1.59 MADRS points. In other words, subjects who are biomarker signature positive improve by an additional 4.7 points […] relative to placebo when treated with aticaprant, compared to subjects who are biomarker signature negative. This signature advantage of 4.7 MADRS points represents the interaction of biomarker signature status with treatment effect. Treatment effects, signature advantage, and corresponding p values are assessed using a linear regression model for treatment outcome with independent variables for treatment, biomarker signature status, and their interaction. All p-values are one sided. Significant is defined as nominal one sided p value <0.05.

Series [3] in a line: Completion / early withdrawal, Example 1. The note with it: Full Safety Analysis Set; 10 mg, N = 85. The text has this:
Patients who passed the screening phase entered a lead in phase followed by a double-blind phase. Patients who responded to placebo during the lead in phase were labelled as non-responders. […] The double-blind treatment phase then continued for an additional 6 weeks, after which patients entered a withdrawal period.
Of the 121 subjects in the enriched population (60 in aticaprant and 61 in placebo group), 117 (96.7%) completed the study. The overall completion rate for the full ITT analysis set is 95%. This contrasts with completion rates of approximately 85% for studies of adjunctive aripiprazole (Pae, CNS Drugs, 2011; 25, 109-127) and 45-62% for adjunctive quetiapine (El Khalili cited above). In total 4 subjects (3.3%) discontinued the study: 2 subjects in placebo and 2 subjects in aticaprant treatment group. See, Tables 30 and 31.

Series [4] deals with subjects with MDD. As to the kind of experiment: HAM-A6 total score (anxiety), Example 1. As to conditions: Treatment Week 6. The text has this: v. To investigate the effect of aticaprant on symptoms of anxiety using the HAM-A and on core symptoms of anxiety using the HAM-A6 subscale.
• (i) Depression: Montgomery-Åsberg Depression Rating Scale (MADRS), Clinical Global Impression-Severity (CGI-S), Symptoms of Major Depressive Disorder Scale (SMDDS), and Self-assessment of treatment experience (SATE) • (ii) Anhedonia: Snaith-Hamilton Pleasure Scale (SHAPS) • (iii) Anxiety: Structured Interview Guide for the Hamilton Anxiety scale (SIGH-A) and HAM-A6 • (iv) Effects on Cognition: The Cognitive and Physical Functioning Questionnaire (CPFQ) • (v) Safety assessments

Molecules are shown by their SMILES.

`Cc1cc(C)cc(C2CCCN2Cc2ccc(Oc3ccc(C(N)=O)cc3F)cc2)c1` (stereo not drawn) [aticaprant, 3-fluoro-4-4-2-(3,5-dimethylphenyl) pyrrolidin-1-yl-methylphenoxybenzamide]: in series [1] (Withdrawal vs Lead-in, n = 85), the “Mean weight: Relative % Change” value is reported as −0.11%. Further, in series [1] (in vivo), the “weight over the 6-week double blind treatment period” value is listed as “remained relatively stable”. In addition, the “Mean weight: Absolute Change (Withdrawal - Lead-in)” value in series [1] (n = 85) is -0.09 kg. The “treatment effect in biomarker signature positive patients” value in the series with subjects with MDD [2] (3 MM and DYN>δ signature (δ=11.5)) is “very large treatment effect”. Also, in the series on subjects with MDD [2] (3 MM or DYN signature negative), the “average aticaprant response in biomarker signature negative patients” value is recorded as “worse than that of placebo”. Also, the signature advantage with subjects with MDD [2] (3 MM or high DYN signature, in more than 60% of patients) is listed as 3-8 point. Further, the “signature advantage (TE SigPos - TE SigNeg)” value in the series with subjects with MDD [2] (3 MM signature) stood at 4.7 MADRS points. Also, the “effect size in signature positive group” value with subjects with MDD [2] (3 MM signature positive) is recorded as 0.75. In the series on subjects with MDD [2] (3 MM signature positive (21% of MDD), end of double-blind), the “treatment effect in signature positive group (placebo - treatment MADRS change)” value worked out at 6.3 MADRS points. The “improvement compared to biomarker signature negative counterpart” value in the series with subjects with MDD [2] (4 MM signature (63% of MDD)) amounted to 6 points. For the same compound, the “MADRS points difference at end DB relative to placebo” value with subjects with MDD [2] (4 MM signature positive (63% of MDD)) is reported as 4.6 MADRS points. The “treatment effects of 4 MM signatures” value in the series with subjects with MDD [2] (DYN>δ1 or (3 MM and DYN>δ2), range of δ1) is on record as at least 4.5 MADRS points. In addition, the “signature advantage of 4 MM signatures” value with subjects with MDD [2] (in 38-63% of patients) is listed as above 5 point. For the same compound, the “Reason For Withdrawal/Termination: Adverse event” value in series [3] is 1 (1.2%). Besides, the “improvement in HAMA6 score vs. placebo” value with subjects with MDD [4] is reported as “greater improvement”.
